Key:
Rat M4 = target: T1, Rat M4 (Rattus norvegicus, UniProt P08485); assay: mAChR M4 cell-based functional calcium flux assay (rat M4/Gqi5/CHO cells); settings: for Emin (rat M4): % ACh maximum at 30 μM
T1 construct: expressed in transfected cells; host or cells: CHO-K1 (ATCC), stably expressing M4 and Gqi5
T1 sequence (P08485 1-478): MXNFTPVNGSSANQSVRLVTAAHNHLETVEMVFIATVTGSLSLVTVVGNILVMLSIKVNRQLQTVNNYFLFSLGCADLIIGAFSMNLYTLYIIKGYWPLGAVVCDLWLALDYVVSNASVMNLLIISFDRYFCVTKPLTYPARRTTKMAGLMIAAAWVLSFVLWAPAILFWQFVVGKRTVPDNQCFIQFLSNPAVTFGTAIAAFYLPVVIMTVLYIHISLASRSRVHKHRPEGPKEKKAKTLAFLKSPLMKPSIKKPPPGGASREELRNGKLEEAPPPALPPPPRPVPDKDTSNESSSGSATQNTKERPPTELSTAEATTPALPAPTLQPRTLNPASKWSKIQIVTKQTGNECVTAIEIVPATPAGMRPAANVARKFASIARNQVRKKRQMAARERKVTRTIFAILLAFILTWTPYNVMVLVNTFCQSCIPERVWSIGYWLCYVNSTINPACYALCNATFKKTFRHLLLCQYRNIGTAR
Experimental: (§1) Human, rat, or mouse M4. cDNA, along with the chimeric G protein Gqi5, were transfected into Chinese hamster ovary (CHO-K1) cells purchased from the American Type Culture Collection using Lipofectamine2000. M4/Gqi5/CHO cells were grown in Ham's F-12 medium containing 10% heat-inactivated fetal bovine serum (FBS), 20 mM HEPES, 500 μg/mL G418 sulfate, and 200 μg/mL Hygromycin B.
(§2) For high throughput measurement of agonist-evoked increases in intracellular calcium, CHO-K1 cells stably expressing muscarinic receptors were plated in growth medium lacking G418 and hygromycin at 15,000 cells/20 μL/well in Greiner 384-well black-walled, tissue culture (TC)-treated, clear-bottom plates (VWR). Cells were incubated overnight at 37° C. and 5% CO2. The next day, cells were washed using an ELX 405 (BioTek) with assay buffer; the final volume was then aspirated to 20 μL. Next, 20 μL of a 2.3 μM stock of Fluo-4/acetoxymethyl ester (Invitrogen, Carlsbad, CA), prepared as a 2.3 mM stock in DMSO and mixed in a 1:1 ratio with 10% (w/v) Pluronic F-127 and diluted in assay buffer, was added to the wells and the cell plates were incubated for 50 min at 37° C. and 5% CO2. Dye was removed by washing with the ELX 405 and the final volume was aspirated to 20 μL. Compound master plates were formatted in a 10 point concentration-response curve (CRC) format (1:3 dilutions) in 100% DMSO with a starting concentration of 10 or 1 mM using a BRAVO liquid handler (Agilent). Test compound CRCs were then transferred to daughter plates (240 nL) using the Echo acoustic plate reformatter (Labcyte, Sunnyvale, CA) and then diluted into assay buffer (40 μL) to a 2× stock using a Thermo Fisher Combi (Thermo Fisher Scientific, Waltham, MA).
(§3) Calcium flux was measured using the Functional Drug Screening System (FDSS) 6000 or 7000 (Hamamatsu Corporation, Tokyo, Japan) as an increase in the fluorescent static ratio. Compounds were applied to cells (20 μL, 2×) using the automated system of the FDSS at 2 seconds into the protocol and the data were collected at 1 Hz. At 143 s, 10 μL of an EC20 concentration of the muscarinic receptor agonist acetylcholine was added (5×), followed by the addition of 12 μL of an EC80 concentration of acetylcholine at the 268 s time point (5×). Agonist activity was analyzed as a concentration-dependent increase in calcium mobilization upon compound addition. Positive allosteric modulator activity was analyzed as a concentration-dependent increase in the EC20 acetylcholine response. Antagonist activity was analyzed as a concentration-dependent decrease in the EC80 acetylcholine response; for the purposes of the tables herein, an IC50 (inhibitory concentration 50) was calculated as a concentration-dependent decrease of the response elicited by an EC80 concentration of acetylcholine. Concentration-response curves were generated using a four-parameter logistical equation in XLFit curve fitting software (IDBS, Bridgewater, NJ) for Excel (Microsoft, Redmond, WA) or Prism (GraphPad Software, Inc., San Diego, CA) or the Dotmatics software platform (Dotmatics, Bishop's Stortford, UK).
(§4) Compounds were synthesized as described above. Activity (IC50 and Emin) was determined in the mAChR M4 cell-based functional assay as described above and the data are shown in Table 2 and Table 3. The compound number corresponds to the compound numbers used in the examples and Tables 1 and 1.1.

Human M4 = target: T2, Human M4 (Homo sapiens, UniProt P08173); assay: mAChR M4 cell-based functional calcium flux assay (human M4/Gqi5/CHO cells); settings: for Emin (human M4): % ACh maximum at 30 μM; for IC50: decrease of the response to an EC80 concentration of acetylcholine
T2 construct: expressed in transfected cells; host or cells: CHO-K1 (ATCC), stably expressing M4 and Gqi5
T2 sequence (P08173 1-479): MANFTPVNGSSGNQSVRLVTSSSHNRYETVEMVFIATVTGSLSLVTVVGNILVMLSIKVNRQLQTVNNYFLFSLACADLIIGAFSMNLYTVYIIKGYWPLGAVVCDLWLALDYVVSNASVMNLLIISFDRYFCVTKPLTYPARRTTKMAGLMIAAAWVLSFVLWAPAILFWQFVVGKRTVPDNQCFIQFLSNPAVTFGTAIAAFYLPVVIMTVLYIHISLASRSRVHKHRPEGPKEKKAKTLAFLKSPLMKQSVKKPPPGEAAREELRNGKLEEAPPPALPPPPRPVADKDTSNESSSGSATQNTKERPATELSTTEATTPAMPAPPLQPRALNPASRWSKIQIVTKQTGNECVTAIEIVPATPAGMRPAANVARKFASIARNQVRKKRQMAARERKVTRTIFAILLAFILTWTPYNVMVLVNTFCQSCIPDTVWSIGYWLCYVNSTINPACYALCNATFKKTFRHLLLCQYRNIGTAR
Experimental: as §1, §2, §3, §4

[1] = decrease of the response to an EC80 concentration of acetylcholine

Fc1ccc(Cl)c(-c2ccc(NCC3CC34CCN(Cc3ncccc3C(F)(F)F)CC4)nn2)c1 (stereo not shown) [Compound 1, 6-(2-chloro-5-fluorophenyl)-N-((6-((3-(trifluoromethyl)pyridin-2-yl)methyl)-6-azaspiro[2.5]octan-1-yl)methyl)pyridazin-3-amine] was tested, and the “Emin (rat M4)” value (Rat M4) was 2.75%, the IC50 (Rat M4; [1]) was 1.15 µM and the “Emin (human M4)” value (Human M4) was 2.74%. For the same compound, the IC50 (Human M4) was 74.6 nM.

In the case of CC(C)(C)CCN1CCC2(CC1)CC2CNc1ccc(-c2ccc(F)cc2)nn1 (stereo not shown) [Compound 2, N-((6-(3,3-Dimethylbutyl)-6-azaspiro[2.5]octan-1-yl)methyl)-6-(4-fluorophenyl)pyridazin-3-amine], the “Emin (rat M4)” value (Rat M4) is reported as 3.35%, the IC50 (Rat M4; [1]) is reported as 0.159 µM and the “Emin (human M4)” value (Human M4) is reported as 2.54%. It also gave an IC50 (Human M4) of 42.4 nM.

For Cc1nn(C)cc1-c1ccc(NCC2CC23CCN(C[C@H]2C[C@@H]4CC[C@H]2O4)CC3)nn1 (stereo partly drawn) [Compound 3, N-((6-(((1R,2R,4S)-7-Oxabicyclo[2.2.1]heptan-2-yl)methyl)-6-azaspiro[2.5]octan-1-yl)methyl)-6-(1,3-dimethyl-1H-pyrazol-4-yl)pyridazin-3-amine], the “Emin (rat M4)” value (Rat M4) was 7.69%, the IC50 (Rat M4; [1]) was 0.742 µM and the “Emin (human M4)” value (Human M4) was 3.52%. It also gave an IC50 (Human M4) of 43.6 nM.

With Cc1cnn(C)c1-c1ccc(NC(=O)C2CC23CCN(CCC(C)(C)C)CC3)nn1 (stereo not shown) [Compound 5, N-(6-(1,4-dimethyl-1H-pyrazol-5-yl)pyridazin-3-yl)-6-(3,3-dimethylbutyl)-6-azaspiro[2.5]octane-1-carboxamide] the “Emin (rat M4)” value (Rat M4) was 18.7%, the IC50 (Rat M4; [1]) was 5.72 µM and the “Emin (human M4)” value (Human M4) was 5.53%. The IC50 (Human M4) was 1680 nM.

For Cc1nn(C)cc1-c1ccc(NCC2CC23CCN(CCC(C)(C)C)CC3)nc1 (stereo not shown) [Compound 6, N-[[6-(3,3-dimethylbutyl)-6-azaspiro[2.5]octan-2-yl]methyl]-5-(1,3-dimethylpyrazol-4-yl)pyridin-2-amine], the “Emin (rat M4)” value (Rat M4) was 3.97%, the IC50 (Rat M4; [1]) was 0.313 µM and the “Emin (human M4)” value (Human M4) was 3.87%. For the same compound, the IC50 (Human M4) was 103 nM.

With Cc1cnn(C)c1-c1ccc(NC(=O)C2CC23CCN(CC(C)C(C)(C)C)CC3)nn1 (stereo not shown) [Compound 7, N-[6-(2,4-dimethylpyrazol-3-yl)pyridazin-3-yl]-6-(2,3,3-trimethylbutyl)-6-azaspiro[2.5]octane-2-carboxamide] the “Emin (rat M4)” value (Rat M4) was 22.7%, the IC50 (Rat M4; cells printed in μM, decrease of the EC80 acetylcholine response) was greater than 10 µM and the “Emin (human M4)” value (Human M4) was 6.29%. It also gave an IC50 (Human M4) of 2240 nM.

In the case of Cc1cnn(C)c1-c1ccc(NC(=O)C2CC23CCN(CC2CC4C=CC2C4)CC3)nn1 (stereo not shown) [Compound 8, 6-(5-bicyclo[2.2.1]hept-2-enylmethyl)-N-[6-(2,4-dimethylpyrazol-3-yl)pyridazin-3-yl]-6-azaspiro[2.5]octane-2-carboxamide], the “Emin (rat M4)” value (Rat M4) is reported as 10.8%, the IC50 (Rat M4; [1]) is reported as 3.64 µM and the “Emin (human M4)” value (Human M4) is reported as 65.0%. For the same compound, the IC50 (Human M4) was 928 nM.

With CC(CN1CCC2(CC1)CC2CNc1ccc(-c2cc(F)ccc2Cl)nn1)C(C)(C)C (stereo not shown) [Compound 12, 6-(2-chloro-5-fluoro-phenyl)-N-[[6-(2,3,3-trimethylbutyl)-6-azaspiro[2.5]octan-2-yl]methyl]pyridazin-3-amine] the “Emin (rat M4)” value (Rat M4) was 2.40%, the IC50 (Rat M4; [1]) was 0.22 µM and the “Emin (human M4)” value (Human M4) was 2.15%. The IC50 (Human M4) was 39.3 nM.

For CC(C)(C)CCN1CCC2(CC1)CC2CNc1ccc(-c2cc(F)ccc2Cl)nn1 (stereo not shown) [Compound 13, 6-(2-chloro-5-fluoro-phenyl)-N-[[6-(3,3-dimethylbutyl)-6-azaspiro[2.5]octan-2-yl]methyl]pyridazin-3-amine], the “Emin (rat M4)” value (Rat M4) was 2.82%, the IC50 (Rat M4; [1]) was 0.117 µM and the “Emin (human M4)” value (Human M4) was 2.29%. It also gave an IC50 (Human M4) of 15.6 nM.

In the case of Fc1ccc(Cl)c(-c2ccc(NCC3CC34CCN(CC3CCCCC3)CC4)nn2)c1 (stereo not shown) [Compound 14, 6-(2-chloro-5-fluoro-phenyl)-N-[[6-(cyclohexylmethyl)-6-azaspiro[2.5]octan-2-yl]methyl]pyridazin-3-amine], the “Emin (rat M4)” value (Rat M4) is reported as 2.42%, the IC50 (Rat M4; [1]) is reported as 0.228 µM and the “Emin (human M4)” value (Human M4) is reported as 1.95%. For the same compound, the IC50 (Human M4) was 17.7 nM.

For Fc1ccc(Cl)c(-c2ccc(NCC3CC34CCN(CC3CCCOC3)CC4)nn2)c1 (stereo not shown) [Compound 15, 6-(2-chloro-5-fluoro-phenyl)-N-[[6-(tetrahydropyran-3-ylmethyl)-6-azaspiro[2.5]octan-2-yl]methyl]pyridazin-3-amine], the “Emin (rat M4)” value (Rat M4) was 4.24%, the IC50 (Rat M4; [1]) was 0.519 µM and the “Emin (human M4)” value (Human M4) was 3.08%. It also gave an IC50 (Human M4) of 6.51 nM.

Fc1ccc(Cl)c(-c2ccc(NCC3CC34CCN(CC35CC6CC(CC(C6)C3)C5)CC4)nn2)c1 (stereo not shown) [Compound 16, N-[[6-(1-adamantylmethyl)-6-azaspiro[2.5]octan-2-yl]methyl]-6-(2-chloro-5-fluoro-phenyl)pyridazin-3-amine] was tested, and the “Emin (rat M4)” value (Rat M4) was 3.13%, the IC50 (Rat M4; [1]) was 0.496 µM and the “Emin (human M4)” value (Human M4) was 2.44%. The IC50 (Human M4) was 94.1 nM.

In the case of Fc1ccc(Cl)c(-c2ccc(NCC3CC34CCN(CC(c3ccccc3)c3ccccc3)CC4)nn2)c1 (stereo not shown) [Compound 17, 6-(2-chloro-5-fluoro-phenyl)-N-[[6-(2,2-diphenylethyl)-6-azaspiro[2.5]octan-2-yl]methyl]pyridazin-3-amine], the “Emin (rat M4)” value (Rat M4) is reported as 12.1%, the IC50 (Rat M4; [1]) is reported as 2.98 µM and the “Emin (human M4)” value (Human M4) is reported as 3.82%. It also gave an IC50 (Human M4) of 987 nM.

CC(C)(C)CCN1CCC2(CC1)CC2CNc1ccc(C2=CCCC2)nn1 (stereo not shown) [Compound 90, 6-(cyclopenten-1-yl)-N-[[6-(3,3-dimethylbutyl)-6-azaspiro[2.5]octan-2-yl]methyl]pyridazin-3-amine] was tested, and the “Emin (rat M4)” value (Rat M4) was 5% and the IC50 (Rat M4; [1]) was 0.347 µM.

CC(C)(C)/C=C/c1ccc(NCC2CC23CCN(CCC(C)(C)C)CC3)nn1 (stereo not shown) [Compound 91, 6-[(E)-3,3-dimethylbut-1-enyl]-N-[[6-(3,3-dimethylbutyl)-6-azaspiro[2.5]octan-2-yl]methyl]pyridazin-3-amine] was tested, and the “Emin (rat M4)” value (Rat M4) was 5% and the IC50 (Rat M4; [1]) was 0.409 µM.

In the case of Cc1ccc(/C=C/c2ccc(NCC3CC34CCN(CCC(C)(C)C)CC4)nn2)cc1 (stereo not shown) [Compound 92, N-[[6-(3,3-dimethylbutyl)-6-azaspiro[2.5]octan-2-yl]methyl]-6-[(E)-2-(p-tolyl)vinyl]pyridazin-3-amine], the “Emin (rat M4)” value (Rat M4) is reported as 4% and the IC50 (Rat M4; [1]) is reported as 1.01 µM.
